# US20060058390A1 (priority 2004, published 2006)
# Read-outs that look alike come from different tables or passages of the source.
# Legend:
# [1] = cited from earlier work
# [2] = male, Sprague-Dawley, rat, in vivo, 150 mg/kg
# Description: Twenty-six male Sprague-Dawley rats weighing approximately 200 to 300 g were used for the study. The jugular vein of six animals were cannulated and the rest of the animals were used without any further preparation.
# Dosing was conducted on two occasions. […] The drug was prepared in a suspension formulation in accordance with the present invention. The blood samples (approximately 0.5 mL/sample) were collected from each animal at predose, 15, 30 minutes, 1, 2, 4 and 6 hours postdose into microtainer tubes containing lithium heparin as an anticoagulant. Replacement blood was infused into each animal following each blood draw. […] The drug was prepared in a solution formulation. […] Blood samples were collected from each animal via the orbital sinus at predose, 2, 15, 30 minutes, 1, 2, 4 and 6 hours postdose. Each animal was bled twice. The blood was centrifuged immediately and the resulting plasma in tubes was flash frozen in liquid nitrogen and stored at approximately −70° C. until analysis.
# L-Methinione can also be detected under the same HPLC conditions.
# Descriptive pharmacokinetic parameters were determined by standard model independent methods (Gibaldi, M. and Perrier, D. Pharmacokinetics, Second Edition, Marcel Dekker, Inc., New York, 1982) based on the mean plasma concentration-time data. The plasma concentrations were rounded to one decimal place before the calculation. Plasma samples with concentrations below the quantifiable limit (BQL) were assigned values of zero for the calculation of mean plasma concentration.
# The mean plasma concentration-time profiles are depicted in FIG. 2.
# [3] = test system: oxidative stress-induced ototoxicity and nephrotoxicity; conditions: in vivo; cited from earlier work
structure (smiles),measurement,setting,value
"CSCC[C@H](N)C(=O)O [L-Methionine, L-methionine]",dosage reported safe for chronic administration,[1]; adult,20 g/day
same,side-effects in human studies,[1]; most human studies,no side-effects
same,AUC(0-inf) of L-Methionine,[2]; iv,326.0 µg·h/mL
same,Cmax of L-Methionine,[2]; iv,161700 ng/mL
same,T1/2 (half-life) of L-Methionine,[2]; iv,1.9 h
same,Tmax of L-Methionine,[2]; iv,0.50 h
same,Mean Plasma Concentrations of L-Methionine,"[2]; iv, 0 h",132.6 ng/mL
same,Mean Plasma Concentrations of L-Methionine,"[2]; iv, 0.03 h",132.6 ng/mL
same,Mean Plasma Concentrations of L-Methionine,"[2]; iv, 0.25 h",146.5 ng/mL
same,Mean Plasma Concentrations of L-Methionine,"[2]; iv, 0.5 h",161.7 ng/mL
same,Mean Plasma Concentrations of L-Methionine,"[2]; iv, 1 h",76.1 ng/mL
same,Mean Plasma Concentrations of L-Methionine,"[2]; iv, 2 h",45.4 ng/mL
same,Mean Plasma Concentrations of L-Methionine,"[2]; iv, 4 h",23.2 ng/mL
same,Mean Plasma Concentrations of L-Methionine,"[2]; iv, 6 h",10.7 ng/mL
same,AUC(0-inf) of L-Methionine,[2]; po,450.2 µg·h/mL
same,Cmax of L-Methionine,[2]; po,47200 ng/mL
same,T1/2 (half-life) of L-Methionine,[2]; po,9.9 h
same,Tmax of L-Methionine,[2]; po,2.00 h
same,Mean Plasma Concentrations of L-Methionine,"[2]; po, 0 h",7.8 ng/mL
same,Mean Plasma Concentrations of L-Methionine,"[2]; po, 0.5 h",33.1 ng/mL
same,Mean Plasma Concentrations of L-Methionine,"[2]; po, 1 h",32.0 ng/mL
same,Mean Plasma Concentrations of L-Methionine,"[2]; po, 2 h",47.2 ng/mL
same,Mean Plasma Concentrations of L-Methionine,"[2]; po, 4 h",22.2 ng/mL
same,Mean Plasma Concentrations of L-Methionine,"[2]; po, 6 h",18.8 ng/mL
same,Mean Plasma Concentrations of L-Methionine,"[2]; po, 12 h",12.6 ng/mL
same,effect on oxidative stress-induced ototoxicity and nephrotoxicity associated with cisplatin,[3],effectively prevent
